Measured values from patent US12390437B2, “Itaconic acid derivatives and uses thereof intreating an inflammatory disease or a disease associated with an undesirable immune response” (Sitryx Therapeutics Limited, priority 2019, dated 2025).

The compounds below were run on IL-1β cytokine output from THP-1s (assay: THP-1 AlphaLISA IL-1β cytokine assay). Settings: Homo sapiens, THP-1, PMA-differentiated THP-1 cells, LPS 24 hr then Nigericin 1 hour; read-out: IL-1β (IC50).
Assay type: cell-based, human
Summary of the method: (§1)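 THP-1 cells, PMA-differentiated 72 h; 30 min compound pre-incubation; LPS 24 h; nigericin 1 h; 37 °C/5% CO2. Supernatants read by AlphaLISA kit. IC50 from % inhibition vs concentration, normalised to +LPS (high) and −LPS (low) controls.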

| Structure (SMILES) | IC50 [µM] |
| --- | --- |
| C=C(CC(=O)OCCCCCCCC)C(=O)OCCS(=O)(=O)c1ccc(C)cc1 [Example 40, 4-octyl 1-(2-tosylethyl) 2-methylenesuccinate] | 1.7 |
| C=C(CC(=O)OCCCCCC)C(=O)OC1COC1 [Example 38, 4-hexyl 1-(oxetan-3-yl) 2-methylenesuccinate] | 7.4 |
| C=C(CC(=O)OC)C(=O)OCCC#N [Example 10, 1-(2-cyanoethyl) 4-methyl 2-methylenesuccinate] | 27.9 |
| C=C(CC(=O)OCCCCCCCC)C(=O)OCC(=O)N(C)C [Example 21, 1-(2-(dimethylamino)-2-oxoethyl) 4-octyl 2-methylenesuccinate] | 2.9 |
| C=C(CC(=O)OCCCCCCCC)C(=O)OCCS(=O)(=O)N(C)C [Example 16, 1-(2-(N,N-dimethylsulfamoyl)ethyl) 4-octyl 2-methylenesuccinate] | 1.7 |
| C=C(CC(=O)OCCCCCCCC)C(=O)OCCC(=O)N(C)C [Example 6, 1-(3-(dimethylamino)-3-oxopropyl) 4-octyl 2-methylenesuccinate] | 12.8 |
| C=C(CC(=O)OCCCC)C(=O)OCCS(C)(=O)=O [Example 7, 4-butyl 1-(2-(methylsulfonyl)ethyl) 2-methylenesuccinate] | 16.7 |
| C=C(CC(=O)OCCCC)C(=O)OCCS(=O)(=O)c1ccc(C)cc1 [Example 39, 4-butyl 1-(2-tosylethyl) 2-methylenesuccinate] | 5.1 |
| C=C(CC(=O)OC)C(=O)OCCS(C)(=O)=O [Example 12, 4-methyl 1-(2-(methylsulfonyl)ethyl) 2-methylenesuccinate] | 28.2 |
| C=C(CC(=O)OCCCCCC)C(=O)OCCC#N [Example 11, 1-(2-cyanoethyl) 4-hexyl 2-methylenesuccinate] | 3.7 |

These compounds were tested on IL-6 cytokine output from THP-1s (assay: THP-1 AlphaLISA IL-6 cytokine assay). Settings: Homo sapiens; PMA-differentiated THP-1 cells, LPS 24 hr then Nigericin 1 hour.
Assay type: cell-based, human
Summary of the method: as §1

| Structure (SMILES) | IC50 [µM] |
| --- | --- |
| C=C(CC(=O)OCCCCCCCC)C(=O)OCCS(=O)(=O)c1ccc(C)cc1 [Example 40, 4-octyl 1-(2-tosylethyl) 2-methylenesuccinate] | 3.4 |
| C=C(CC(=O)OCCCCCC)C(=O)OC1COC1 [Example 38, 4-hexyl 1-(oxetan-3-yl) 2-methylenesuccinate] | 6.8 |
| C=C(CC(=O)OC)C(=O)OCCC#N [Example 10, 1-(2-cyanoethyl) 4-methyl 2-methylenesuccinate] | 7.6 |
| C=C(CC(=O)OCCCCCCCC)C(=O)OCC(=O)N(C)C [Example 21, 1-(2-(dimethylamino)-2-oxoethyl) 4-octyl 2-methylenesuccinate] | 2.4 |
| C=C(CC(=O)OCCCCCCCC)C(=O)OCCS(=O)(=O)N(C)C [Example 16, 1-(2-(N,N-dimethylsulfamoyl)ethyl) 4-octyl 2-methylenesuccinate] | 1.1 |
| C=C(CC(=O)OCCCCCCCC)C(=O)OCCC(=O)N(C)C [Example 6, 1-(3-(dimethylamino)-3-oxopropyl) 4-octyl 2-methylenesuccinate] | 12.1 |
| C=C(CC(=O)OCCCC)C(=O)OCCS(C)(=O)=O [Example 7, 4-butyl 1-(2-(methylsulfonyl)ethyl) 2-methylenesuccinate] | 12 |
| C=C(CC(=O)OCCCC)C(=O)OCCS(=O)(=O)c1ccc(C)cc1 [Example 39, 4-butyl 1-(2-tosylethyl) 2-methylenesuccinate] | 7.3 |
| C=C(CC(=O)OC)C(=O)OCCS(C)(=O)=O [Example 12, 4-methyl 1-(2-(methylsulfonyl)ethyl) 2-methylenesuccinate] | 11.3 |

What follows are compounds tested on NQO1 (assay: NQO1 enzyme activation assay as a readout of NRF2 activation in THP-1 cells). Settings: Homo sapiens, THP-1; percentage activation at top concentration, normalised to DMF (100%) and vehicle controls.
Assay type: cell-based
Protocol: NQO1 Enzyme Activation Assay as a Readout of NRF2 Activation in THP-1 Cellular Background
NAD(P)H dehydrogenase [quinone] […] Induction of this gene is concomitant with the inhibition of proinflammatory cytokine transcription and suppression of the inflammatory response (Kobayashi E. H. et al., 2016). The NQO1 enzyme activation activities of compounds of formula (IW-1) were determined using a cellular based NQO1 activation assay (Abcam). The NQO1 activation assay was run in differentiated THP-1 cells (a human monocyte-like cell line) as described below. All reagents described are from Sigma-Aldrich unless specified otherwise. Compounds were prepared as 10 mM DMSO stocks.
THP-1 cells were expanded as a suspension up to 80% confluence in appropriate growth medium. Cells were harvested, suspended, treated with phorbol 12-myristate 13-acetate (PMA) and plated according to the cell density required for each plate format over a 72 hr period (37° C./5% CO2).
Following 72 hrs of THP-1 cell incubation, cellular medium was removed and replaced with fresh media. Working concentrations of compounds were prepared and pre-incubated for 30 minutes (37° C./5% CO2). Compound treatment was then applied to the PMA treated THP-1 cell plate followed by LPS treatment. A ‘low’ (DMSO vehicle only) control and ‘high’ (designated concentration of dimethyl fumarate) was applied to each plate at the point of compound treatment. Cells were subsequently incubated for a 48 hr period (37° C./5% C02) after which all NQO1 assay reagents were prepared according to the manufacturer's instructions. NQO1 extraction buffer was applied to PBS washed THP-1 cells and incubated on ice for 15 minutes to prepare THP-1 lysates for the NQO1 activity assay. THP-1 lysates were diluted 1:5 with PBS and treated with a 1:1 volume of kit prepared NQO1 Reaction Buffer. Absorbance was subsequently measured kinetically on an appropriate reader over a 6 minute period.
For activation determination, the fold change in response per well was determined by first calculating the average NQO1 activation data for the vehicle control and then dividing the individual well response by the averaged NQO1 response for the vehicle control as shown below: Fold change=(Sample value)/MeanMin Where ‘Min’=vehicle control only
The relative 50% activation concentration (EC50) was determined from the resulting fold change response curve. The maximum efficacy (Emax) was reported as the percentage activation calculated at the top concentration of compound used in the titration applied. If a full curve was unattainable preventing a correct curve fit, the Emax value was extrapolated using existing curve data. All percentage activation data were normalised to the DMF and vehicle controls, meaning the Emax represents the percentage […] achieved by a compound at a particular concentration relative to that achieved by DMF (set as the ‘High’ control and therefore representative of 100% activation).

| Structure (SMILES) | Emax [%] |
| --- | --- |
| C=C(CC(=O)OCCCCCCCC)C(=O)OCCS(=O)(=O)c1ccc(C)cc1 [Example 40, 4-octyl 1-(2-tosylethyl) 2-methylenesuccinate] | 56 |
| C=C(CC(=O)OCCCCCC)C(=O)OC1COC1 [Example 38, 4-hexyl 1-(oxetan-3-yl) 2-methylenesuccinate] | 111 |
| C=C(CC(=O)OC)C(=O)OCCC#N [Example 10, 1-(2-cyanoethyl) 4-methyl 2-methylenesuccinate] | 107 |
| C=C(CC(=O)OCCCCCCCC)C(=O)OCC(=O)N(C)C [Example 21, 1-(2-(dimethylamino)-2-oxoethyl) 4-octyl 2-methylenesuccinate] | 150 |
| C=C(CC(=O)OCCCCCCCC)C(=O)OCCS(=O)(=O)N(C)C [Example 16, 1-(2-(N,N-dimethylsulfamoyl)ethyl) 4-octyl 2-methylenesuccinate] | 108 |
| C=C(CC(=O)OCCCCCCCC)C(=O)OCCC(=O)N(C)C [Example 6, 1-(3-(dimethylamino)-3-oxopropyl) 4-octyl 2-methylenesuccinate] | 154 |
| C=C(CC(=O)OCCCC)C(=O)OCCS(C)(=O)=O [Example 7, 4-butyl 1-(2-(methylsulfonyl)ethyl) 2-methylenesuccinate] | 78 |
| C=C(CC(=O)OCCCC)C(=O)OCCS(=O)(=O)c1ccc(C)cc1 [Example 39, 4-butyl 1-(2-tosylethyl) 2-methylenesuccinate] | 59 |
| C=C(CC(=O)OC)C(=O)OCCS(C)(=O)=O [Example 12, 4-methyl 1-(2-(methylsulfonyl)ethyl) 2-methylenesuccinate] | 88 |
| C=C(CC(=O)OCCCCCC)C(=O)OCCC#N [Example 11, 1-(2-cyanoethyl) 4-hexyl 2-methylenesuccinate] | 124 |

Same assay, conditions: Homo sapiens; differentiated THP-1 cells, LPS, 48 hr

| Structure (SMILES) | EC50 [µM] |
| --- | --- |
| C=C(CC(=O)OCCCCCCCC)C(=O)OCCS(=O)(=O)c1ccc(C)cc1 [Example 40, 4-octyl 1-(2-tosylethyl) 2-methylenesuccinate] | 16.6 |
| C=C(CC(=O)OCCCCCC)C(=O)OC1COC1 [Example 38, 4-hexyl 1-(oxetan-3-yl) 2-methylenesuccinate] | 8.5 |
| C=C(CC(=O)OC)C(=O)OCCC#N [Example 10, 1-(2-cyanoethyl) 4-methyl 2-methylenesuccinate] | 15.2 |
| C=C(CC(=O)OCCCCCCCC)C(=O)OCC(=O)N(C)C [Example 21, 1-(2-(dimethylamino)-2-oxoethyl) 4-octyl 2-methylenesuccinate] | 12.1 |
| C=C(CC(=O)OCCCCCCCC)C(=O)OCCS(=O)(=O)N(C)C [Example 16, 1-(2-(N,N-dimethylsulfamoyl)ethyl) 4-octyl 2-methylenesuccinate] | 19.8 |
| C=C(CC(=O)OCCCCCCCC)C(=O)OCCC(=O)N(C)C [Example 6, 1-(3-(dimethylamino)-3-oxopropyl) 4-octyl 2-methylenesuccinate] | 30.6 |
| C=C(CC(=O)OCCCC)C(=O)OCCS(C)(=O)=O [Example 7, 4-butyl 1-(2-(methylsulfonyl)ethyl) 2-methylenesuccinate] | 7.3 |
| C=C(CC(=O)OCCCC)C(=O)OCCS(=O)(=O)c1ccc(C)cc1 [Example 39, 4-butyl 1-(2-tosylethyl) 2-methylenesuccinate] | 1.3 |
| C=C(CC(=O)OC)C(=O)OCCS(C)(=O)=O [Example 12, 4-methyl 1-(2-(methylsulfonyl)ethyl) 2-methylenesuccinate] | 22.7 |
| C=C(CC(=O)OCCCCCC)C(=O)OCCC#N [Example 11, 1-(2-cyanoethyl) 4-hexyl 2-methylenesuccinate] | 10.4 |
